Here are results for 3 molecules from US20170209415A1, “USE OF (+)-1-(3,4-DICHLOROPHENYL)-3-AZABICYCLO[3.1.0]HEXANE TO TREAT ADDICTIVE DISORDERS INCLUDING NICOTINE ADDICTION” (priority 2012, published 2017).

For data set [1] the following is noted: cited from earlier work.
The target in another data set is T1, α4β2 nicotinic receptors (Homo sapiens, UniProt P17787+P43681).
T1 construct: Cerep, Inc. (Poitiers, France), contract assay; host or cells: SH-SYSY (SH-SY5Y) cells
Kind of data set: Radioligand binding to α4β2 nicotinic receptors in SH-SYSY cells ([3H]cytosine). How it is done:
(§1) To examine the possibility that a (+)-1-(3, 4-dichlorophenyl)-3-azabicyclo[3.1.0]hexane may have effects mediated via direct actions on nicotinic receptors, its affinity was determined for α7 and α4β2 nicotinic receptors in radioligand binding assays. The assessment was conducted by Cerep, Inc. (Poitiers, France). Inhibition of binding to α4β2 nicotinic receptors in SH-SYSY cells was determined using the radioligand [^3H]cytosine at 0.6 nM concentration according to the method of Gopalakrishnan et al. (1996). Incubation was for 120 minutes at 4° C. and non-specific binding was determined with 10 μM nicotine. Inhibition of binding to α7 nicotinic receptors in SH-SYSY cells was determined using [^125I]α-bungarotoxin (0.05 nM) according to the method of Sharples et al. (2000). Incubation was 120 minutes at 37° C. and non-specific binding was determined using α-bungarotoxin (1 μM). Specific binding of the radioligands was determined by scintillation spectrometry technology.

Another data set has as its target T2, α7 nicotinic receptors (Homo sapiens, UniProt P36544).
T2 construct: Cerep, Inc. (Poitiers, France), contract assay; host or cells: SH-SYSY (SH-SY5Y) cells
Put plainly: Radioligand binding to α7 nicotinic receptors in SH-SYSY cells ([125I]α-bungarotoxin). How it is done: as §1

For data set [2], the system named is alcohol-preferring (P) rats. Kind of data set: Nicotine sensitization, open field locomotor activity in alcohol-preferring rats. The class given is in vivo, rat. The settings on record: for locomotor activity when administered alone: oral 2.5-40 mg/kg without nicotine, P rats. How it is done:
P and NP (alcohol-nonpreferring) rats were administered nicotine by subcutaneous injection of 0.4 mg/kg nicotine each day for 10 days. The rats were then immediately run for 90 minute locomotor sessions using an open-field activity monitoring cage (27×27×20.3 cm, Med Associates, Inc., St. Albans, Vt.). Activity counts represented by the number of infrared beam interruptions were recorded for each animal.
To evaluate the capacity of oral (+)-1-(3, 4-dichlorophenyl)-3-azabicyclo[3.1.0]hexane to block nicotine-induced sensitization in P rats, cohorts of P rats (n=6-9/group) were sensitized to nicotine as described in Example I. The rats were then divided into sixteen groups and given either vehicle, nicotine alone, 2.5 mg/kg (+)-1-(3, 4-dichlorophenyl)-3-azabicyclo[3.1.0]hexane, 5 mg/kg (+)-1-(3, 4-dichlorophenyl)-3-azabicyclo[3.1.0]hexane, 10 mg/kg (+)-1-(3, 4-dichlorophenyl)-3-azabicyclo[3.1.0]hexane, 25 mg/kg (+)-1-(3, 4-dichlorophenyl)-3-azabicyclo[3.1.0]hexane, or 40 mg/kg (+)-1-(3, 4-dichlorophenyl)-3-azabicyclo[3.1.0]hexane. Thirty minutes after administration of (+)-1-(3, 4-dichlorophenyl)-3-azabicyclo[3.1.0]hexane, half of the rats were given 0.4 mg/kg nicotine or vehicle. The rats were then immediately run for 90 minute locomotor sessions using an open-field activity monitoring cage (27×27×20.3 cm, Med Associates, Inc., St. Albans, Vt.). Activity counts represent the number of infrared beam interruptions were recorded for each animal.

For data set [3], the system named is alcohol-preferring (P) rats. Kind of data set: Nicotine potentiation of intracranial self-stimulation (ICSS) in alcohol-preferring rats. The class given is in vivo, rat. How it is done: (§2) Rats were anesthetized with isoflurane and an electrode was implanted in the medial forebrain bundles as previously described (Eiler et al., 2005; 2007). Behavioral training and testing was conducted in standard operant chambers (Coulbourn Instruments, Allentown, Pa.) equipped with a removable lever enclosed in a sound attenuating cubicle as previously reported (Eiler et al., 2005; 2007). Four dependent variables were collected in the studies: (1) the frequency that corresponds with 50% of responding (EF50), (2) the minimum/lowest frequency capable of maintaining brain stimulation reward (BSR), (3) the maximum frequency producing the highest rate of lever pressing throughout the BSR session, and (4) the total number of lever presses produced during a 20 minute session.
After surgical implantation, rats were trained on a continuous reinforcement (FR1) schedule, then decreased to a frequency of reinforcement after every six correct responses (FR6) until stabilization.
Following the initial ICSS experiments, the effects of varied doses of nicotine were examined in the ICSS paradigm. Animals were prepared and trained as described above.
as §2, with “The effect of (+)-1-(3, 4-dichlorophenyl)-3-azabicyclo[3.1.0]hexane on the nicotine facilitation of ICSS was examined in P rats. Rats” for “Rats”, “session” for “session,”
After surgical implantation, rats were trained on a continuous reinforcement (FR1) schedule, then decreased to a frequency of reinforcement after every six correct responses (FR6) until stabilization. After training, the rats were sensitized with nicotine (0.4 mg/kg daily) using the Kelley 10-day sensitization model as described in Example I (rats were treated with either nicotine (0.4 mg/ml/kg) or saline once per day for 10 days in a test environment distinct from their home cages (Schroeder et al., 2001).
After sensitization, three of the nicotine cohorts of P rats (n=8) were given (+)-1-(3, 4-dichlorophenyl)-3-azabicyclo[3.1.0]hexane (10, 20 or 40 μg) into the medial prefrontal cortex (mPC) prior to the daily administration of nicotine (0.4 mg/ml/kg).

The test system of data set [4] is alcohol-preferring (P) rats. Put plainly: Nicotine withdrawal effects in ICSS paradigm in alcohol-preferring rats. The data set is classed as in vivo, rat. How it is done: as §2, with “session” for “session,”
After surgical implantation, rats were trained on a continuous reinforcement (FR1) schedule, and then decreased to a frequency of reinforcement after every six correct responses (FR6) until stabilization. After training, the rats were sensitized with nicotine (0.4 mg/kg daily) for 14 days. 12 hours after the last dose of nicotine, animals were run for a 20 min FR-6 ICSS sessions. ICSS sessions were run every 12 hours (12 hrs, 24 hrs, 36 hrs, 48 hrs, 60 hrs and 72 hrs) for 72 hours.
as §2, with “The effect of (+)-1-(3, 4-dichlorophenyl)-3-azabicyclo[3.1.0]hexane on nicotine withdrawal and ICSS was examined in P rats. Rats” for “Rats”, “session” for “session,”
After surgical implantation, rats were trained on a continuous reinforcement (FR1) schedule, and then decreased to a frequency of reinforcement after every six correct responses (FR6) until stabilization. After training, the rats were sensitized with nicotine (0.4 mg/kg daily) for 14 days. Rats were then given either PBS, 20 mg/kg of (+)-1-(3, 4-dichlorophenyl)-3-azabicyclo[3.1.0]hexane or 40 mg/kg of (+)-1-(3, 4-dichlorophenyl)-3-azabicyclo[3.1.0]hexane. After 48 hours, the animals were run for a 20 min FR-6 ICSS session.

Data set [5] concerns alcohol-preferring (P) rats. Put plainly: Forced swim test during nicotine withdrawal in alcohol-preferring rats. The class given is in vivo, rat. The procedure: The forced swim test (FST) is an animal model of depression in which nicotine withdrawal causes increased immobility (i.e. despair) in the rodents. The FST accordingly may be used as an animal model to evaluate negative affective states during nicotine withdrawal, which may emulate “depressive-like” behavior in human nicotine addicts.
P rats were administered nicotine by subcutaneous injection of 0.4 mg/kg nicotine each day for 14 days and then deprived of nicotine. Lucki's modified FST (Cryan et al., 2002) was performed using immobility, climbing and swimming every twelve hours following the last dose of nicotine (12 hrs, 24 hrs, 36 hrs, 48 hrs, 60 hrs and 72 hrs) for 72 hours.

Where [6] appears, read: read-out: % Inhibition of binding.
Where [7] appears, read: oral 20 and 40 mg/kg, 48 hours nicotine abstinence.
Setting [8] is: 0.2-0.8 mg/kg SQ, all 3 doses, sensitized P rats.
[9] abbreviates: 12-72 hrs after last dose, 0.4 mg/kg daily for 14 days.
The mark [10] stands for this setting: after 0.4 mg/kg sc daily for 14 days.

T1 sequence (P43681 29-627 limits assumed): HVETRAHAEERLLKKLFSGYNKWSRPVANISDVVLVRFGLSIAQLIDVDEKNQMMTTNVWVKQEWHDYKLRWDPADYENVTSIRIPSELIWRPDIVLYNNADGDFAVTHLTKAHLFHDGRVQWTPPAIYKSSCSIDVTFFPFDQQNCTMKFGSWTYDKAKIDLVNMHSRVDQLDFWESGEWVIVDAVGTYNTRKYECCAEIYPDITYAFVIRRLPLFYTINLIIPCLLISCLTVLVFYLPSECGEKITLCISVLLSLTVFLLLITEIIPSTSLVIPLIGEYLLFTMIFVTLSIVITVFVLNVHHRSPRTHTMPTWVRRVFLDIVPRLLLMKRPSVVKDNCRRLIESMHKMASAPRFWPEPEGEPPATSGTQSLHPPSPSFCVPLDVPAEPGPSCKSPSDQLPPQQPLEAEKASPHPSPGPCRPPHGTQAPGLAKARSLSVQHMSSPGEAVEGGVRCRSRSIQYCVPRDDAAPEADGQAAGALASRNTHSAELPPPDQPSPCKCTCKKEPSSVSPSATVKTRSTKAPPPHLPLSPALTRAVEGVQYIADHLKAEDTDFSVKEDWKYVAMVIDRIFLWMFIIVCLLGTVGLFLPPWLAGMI
T1 sequence (P17787 26-502): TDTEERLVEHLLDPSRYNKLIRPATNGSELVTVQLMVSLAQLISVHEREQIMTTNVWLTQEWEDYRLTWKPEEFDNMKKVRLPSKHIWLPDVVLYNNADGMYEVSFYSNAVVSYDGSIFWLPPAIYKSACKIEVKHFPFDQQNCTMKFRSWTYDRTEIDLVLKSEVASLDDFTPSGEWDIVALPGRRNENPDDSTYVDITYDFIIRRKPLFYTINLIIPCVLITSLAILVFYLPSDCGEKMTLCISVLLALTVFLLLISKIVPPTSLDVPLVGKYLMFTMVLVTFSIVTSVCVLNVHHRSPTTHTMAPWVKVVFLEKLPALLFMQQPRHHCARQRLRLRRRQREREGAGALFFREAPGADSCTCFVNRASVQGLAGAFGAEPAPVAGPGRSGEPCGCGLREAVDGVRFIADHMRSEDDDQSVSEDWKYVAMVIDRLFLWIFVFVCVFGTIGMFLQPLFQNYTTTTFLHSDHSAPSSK
T2 sequence (P36544 23-502): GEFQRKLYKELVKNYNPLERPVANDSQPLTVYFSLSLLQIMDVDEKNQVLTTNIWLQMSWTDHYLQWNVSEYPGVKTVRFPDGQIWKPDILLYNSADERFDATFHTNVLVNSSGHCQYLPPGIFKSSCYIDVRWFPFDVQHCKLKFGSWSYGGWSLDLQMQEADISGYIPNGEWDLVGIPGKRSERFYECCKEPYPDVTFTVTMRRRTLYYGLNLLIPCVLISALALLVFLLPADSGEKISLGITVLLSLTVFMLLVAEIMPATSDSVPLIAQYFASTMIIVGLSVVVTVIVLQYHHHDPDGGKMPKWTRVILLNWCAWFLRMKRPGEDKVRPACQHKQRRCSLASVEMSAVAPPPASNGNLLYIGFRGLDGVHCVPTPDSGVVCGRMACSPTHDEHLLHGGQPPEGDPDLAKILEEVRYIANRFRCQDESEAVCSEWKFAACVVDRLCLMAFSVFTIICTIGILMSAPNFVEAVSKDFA

In the case of `COC[C@@H]1[C@@H](c2ccc(Cl)c(Cl)c2)C[C@@H]2CC[C@H]1N2` [GSK372475, reference compound], the “noradrenergic side effects such as significantly elevated heart rate and increased systolic and diastolic blood pressure” value in data set [1] (in vivo) was “seen”.
Regarding `Clc1ccc([C@]23CNC[C@H]2C3)cc1Cl` [amitifadine, (1R,5S)-(+)-1-(3,4-dichlorophenyl)-3-azabicyclo[3.1.0]hexane], the inhibition (commonly the drop in the measured response relative to a control, in per cent) at 0.1 µM on α4β2 nicotinic receptors (concentration 100 nM) came to 17%. In addition, the inhibition at 1 µM at α4β2 nicotinic receptors (concentration 1000 nM) was 14%. At α4β2 nicotinic receptors (concentration 10000 nM), the inhibition at 10 µM is 13%. The “effect on binding of radioligand” value on α4β2 nicotinic receptors (concentrations from 100 to 10,000 nM) is “no appreciable effect”. Besides, on α7 nicotinic receptors (setting [6]), the inhibition at 0.1 µM turned out to be 13%, the inhibition at 1 µM came to 6% and the inhibition at 10 µM was -9%. Besides, on α7 nicotinic receptors (α7, concentrations from 100 to 10,000 nM), the “effect on binding of radioligand” value is on record as “no appreciable effect”. Besides, the “nicotine-induced increases in horizontal activity” value in data set [2] (oral 2.5, 5, 10, 25, 40 mg/kg, 30 min before 0.4 mg/kg nicotine, sensitized P rats, 90 minute open field session) is “significantly reduced”. In data set [2] (90 minute open field session), the “locomotor activity when administered alone” value is “did not significantly alter”. Further, the “locomotor activity when administered alone” value in data set [2] (90 minute open field session, listed as (+)-1-(3, 4-dichlorophenyl)-3-azabicyclo[3.1.0]hexane) was “did not alter”. In data set [3] (10, 20 or 40 μg into mPC), the “nicotine elevation in total responding” value is recorded as “attenuation”, the “nicotine reduction of EF50” value is on record as “attenuation” and the “nicotine reduction of minimum frequency” value is “attenuation”. Also, the “nicotine facilitation on ICSS” value in data set [3] (10, 20 or 40 μg into medial prefrontal cortex immediately prior to nicotine 0.4 mg/ml/kg, P rats) is “significantly reduced”. Further, the “reduction in responding produced by the 48 hour withdrawal period” value in data set [4] (oral 20 and 40 mg/kg) is “elevated”. For the same molecule, in data set [4] (setting [7]), the “nicotine elevation of the reward threshold, EF50” value is “profound reduction” and the “nicotine elevation of the reward threshold, minimum frequency” value is given as “profound reduction”. In addition, the “nicotine-induced increases in immobility” value in data set [5] (oral 12.5 or 25 mg/kg administered at 48 hours of nicotine abstinence) is “significantly attenuated”. Moreover, the tolerability result in data set [1] (U.S. Ser. No. 13/310,694, Graff et al. 2009) is “well tolerated”. In data set [1] (in vivo), the “dopaminergic side effects such as nausea, vomiting, and hypomania” value is “did not lead to”; the “noradrenergic side effects such as significantly elevated heart rate and increased systolic and diastolic blood pressure” value is “did not lead to”.
With `CN1CCCC1c1cccnc1` (stereo not shown) [nicotine], the “sensitization to nicotine (open field activity)” value in data set [2] (0.4 mg/kg sc daily for 10 days, P versus NP rats) is listed as “occurs in P rats only”. For the same molecule, in data set [3] (0.4 mg/kg sc on day 11, P, but not NP, rats), the “sensitivity to the reward potentiating effects of nicotine in ICSS following sensitization” value was “enhanced sensitivity”. In addition, the “ICSS responding versus saline” value in data set [3] (0.2-0.8 mg/kg SQ on day 11, sensitized P rats) was “higher responding than did saline”. For the same molecule, in data set [3] (setting [8]), the EF50 entry was “reduction” and the minimum frequency entry was “reduction”. Moreover, in data set [4] (setting [9]), the EF50 during withdrawal entry is reported as “time dependent increase”, the “minimum frequency capable of maintaining BSR during withdrawal” value was “time dependent increase” and the “total ICSS responding during withdrawal” value is “marked reduction”. Further, in data set [5] (setting [10]), the “climbing during nicotine abstinence” value was “Reduction” and the “swimming during nicotine abstinence” value was “Reduction”. The “immobility during nicotine abstinence” value in data set [5] (at 48 and 72 hours after 0.4 mg/kg sc daily for 14 days) is recorded as “significant elevation”.
